Experimental data from PMC8565777, “The chitinolytic activity of the Curtobacterium sp. isolated from field-grown soybean and analysis of its genome sequence” (PLoS ONE, 2021).

Tested on: T1, GH18 chitinase from Curtobacterium sp. GD1 (carbohydrate binding protein, CBP)
T1 construct: native secreted enzyme, partially purified from chitin-induced culture supernatant (two major bands); 429 aa precursor, predicted 31 aa signal peptide removed; genome has 3 GH18 genes
Assay: colorimetric p-nitrophenol release at […] nm, Lineweaver-Burk
Type: biochemical
Settings: 100 mmol/L sodium phosphate pH 7.0, 37 °C, partially purified enzyme; substrate range 3-90 mmol/L; substrate of the Km not restated beside the value; unit printed as mmol (mmol/L presumably meant)

`CC(=O)N[C@H]1[C@H](Oc2ccc([N+](=O)[O-])cc2)O[C@H](CO)[C@@H](O[C@@H]2O[C@H](CO)[C@@H](O[C@@H]3O[C@H](CO)[C@@H](O)[C@H](O)[C@H]3NC(C)=O)[C@H](O)[C@H]2NC(C)=O)[C@@H]1O` [p-nitrophenyl-β-D-N,N’,N”-triacetylchitotriose] showed a Km of 10 mmol.
